For orientation: IC50 means the concentration that inhibits the measured activity by half.

Consider 18 molecules from US9956220B2, “Imidazo-pyridazine derivatives as casein kinase 1 δ/ϵ inhibitors” (Bristol-Myers Squibb Company, priority 2014, dated 2018).

One assay concerns the target CK1δ (Homo sapiens, UniProt P48730). The experiment in a line: CK1δ kinase assay (Caliper LABCHIP electrophoretic separation of fluoresceinated peptide substrate and product). Type of assay: biochemical. As to conditions: 200 pM CK1δ, 50 μM ATP, 1.5 μM peptide substrate, 22 hours at room temperature. On the procedure: (§1) CK1ϵ and CK1δ Kinase Assays
(§2) The kinase assay was performed in V-bottom 384-well plates.
(§3) The reaction was incubated at room temperature for 22 hours and terminated by adding 45 μl of 35 mM EDTA to each sample. The reaction mixture was analyzed on the Caliper LABCHIP®3000 (Caliper, Hopkinton, Mass.) by electrophoretic separation of the unphosphorylated substrate and phosphorylated product. […] Compounds were dissolved at 10 mM in dimethylsulfoxide (DMSO) and evaluated at eleven concentrations. IC50 values were derived by non-linear regression analysis.

For the next assay, the target named is CK1ϵ (Homo sapiens, UniProt P49674). The experiment in a line: CK1ϵ kinase assay (Caliper LABCHIP electrophoretic separation of fluoresceinated peptide substrate and product). It is filed as biochemical. The note with it: 200 pM CK1ϵ, 50 μM ATP, 1.5 μM peptide substrate, 22 hours at room temperature; read-out: CK1ε (IC50). How it is done:
as §1, §2, §3

Sequence of CK1δ (P48730 whole entry): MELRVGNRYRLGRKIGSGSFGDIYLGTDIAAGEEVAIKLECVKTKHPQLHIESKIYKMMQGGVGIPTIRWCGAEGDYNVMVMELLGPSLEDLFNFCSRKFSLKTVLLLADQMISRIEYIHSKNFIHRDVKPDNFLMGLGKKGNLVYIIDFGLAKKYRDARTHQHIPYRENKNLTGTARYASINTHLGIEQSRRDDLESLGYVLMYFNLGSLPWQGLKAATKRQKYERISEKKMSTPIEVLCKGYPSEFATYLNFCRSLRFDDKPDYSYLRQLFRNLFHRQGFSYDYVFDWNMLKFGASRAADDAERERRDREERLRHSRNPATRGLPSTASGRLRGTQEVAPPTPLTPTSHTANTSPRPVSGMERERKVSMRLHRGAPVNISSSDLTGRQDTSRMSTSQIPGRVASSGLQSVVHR
Sequence of CK1ϵ (P49674 whole entry): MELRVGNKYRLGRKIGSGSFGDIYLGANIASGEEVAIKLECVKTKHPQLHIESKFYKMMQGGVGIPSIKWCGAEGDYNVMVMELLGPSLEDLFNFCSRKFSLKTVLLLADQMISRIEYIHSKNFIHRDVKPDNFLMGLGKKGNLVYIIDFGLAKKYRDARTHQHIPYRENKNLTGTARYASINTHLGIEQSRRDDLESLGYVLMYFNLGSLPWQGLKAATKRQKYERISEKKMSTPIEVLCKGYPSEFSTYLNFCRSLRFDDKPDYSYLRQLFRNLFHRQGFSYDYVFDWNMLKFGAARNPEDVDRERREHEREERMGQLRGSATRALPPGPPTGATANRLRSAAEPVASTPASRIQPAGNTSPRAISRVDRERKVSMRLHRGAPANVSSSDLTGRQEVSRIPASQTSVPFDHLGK

Turning to `O=C(Nc1cn2nc(-c3c(-c4ccc(F)cc4)nn4c3CN(C(=O)c3ccc(F)cc3)CC4)ccc2n1)c1ccnc(F)c1` [Example 14, 2-Fluoro-N-(6-(5-(4-fluorobenzoyl)-2-(4-fluorophenyl)-4,5,6,7-tetrahydropyrazolo[1,5-a]pyrazin-3-yl)imidazo[1,2-b]pyridazin-2-yl) isonicotinamide], the figures for the concentration for half-maximal inhibition (IC50) at CK1δ and at CK1ϵ were 0.5 nM and 3.1 nM, respectively.

For `O=C(Nc1cn2nc(-c3c(-c4ccc(F)cc4)nn4ccccc34)ccc2n1)c1cc(F)nc(F)c1` [Example 61, 2,6-Difluoro-N-(6-(2-(4-fluorophenyl)pyrazolo[1,5-a]pyridin-3-yl)imidazo[1,2-b]pyridazin-2-yl)isonicotinamide], the concentration for half-maximal inhibition (IC50) is 19.5 nM against CK1δ and 137 nM at CK1ϵ.

For the molecule `O=C(Nc1cn2nc(-c3c(-c4ccc(F)cc4)nn4c3CCCC4)ccc2n1)c1ccnc(F)c1` [Example 62, 2-Fluoro-N-(6-(2-(4-fluorophenyl)-4,5,6,7-tetrahydropyrazolo[1,5-a]pyridin-3-yl)imidazo[1,2-b]pyridazin-2-yl)isonicotinamide], the 50% inhibitory concentration (IC50) was found to be 0.4 nM against CK1δ and 1.3 nM on CK1ϵ.

In the case of `N#CCC(=O)N1CCn2nc(-c3ccc(F)cc3)c(-c3ccc4nc(NC(=O)c5ccnc(F)c5)cn4n3)c2C1` [Example 24, N-(6-(5-(2-Cyanoacetyl)-2-(4-fluorophenyl)-4,5,6,7-tetrahydropyrazolo[1,5-a]pyrazin-3-yl)imidazo[1,2-b]pyridazin-2-yl)-2-fluoroisonicotinamide], the values for the IC50 on CK1δ and on CK1ϵ were 0.4 nM and 2.9 nM, respectively.

Consider `O=C(Nc1cn2nc(-c3c(-c4ccc(F)cc4)noc3C3CCOCC3)ccc2n1)c1ccnc(-c2cccnc2)c1` [Example 71, N-(6-(3-(4-Fluorophenyl)-5-(tetrahydro-2H-pyran-4-yl)isoxazol-4-yl)imidazo[1,2-b]pyridazin-2-yl)-[2,3′-bipyridine]-4-carboxamide], for which the figures for the half-maximal inhibitory concentration (IC50) against CK1δ and at CK1ϵ were 2.5 nM and 29 nM, respectively.

`O=C(Nc1cn2nc(-c3c(-c4ccc(F)cc4)nn4c3CN(C(=O)NC3CC3)CC4)ccc2n1)c1ccnc(F)c1` [Example 46, N-Cyclopropyl-3-(2-(2-fluoroisonicotinamido)imidazo[1,2-b]pyridazin-6-yl)-2-(4-fluorophenyl)-6,7-dihydropyrazolo[1,5-a]pyrazine-5(4H)-carboxamide]: the values for the 50% inhibitory concentration (IC50) at CK1δ and on CK1ϵ were 0.4 nM and 2.5 nM, respectively.

As to `O=C(Nc1cn2nc(-c3c(-c4ccc(F)cc4)nn4c3COCC4)ccc2n1)c1cc(F)nc(F)c1` [Example 56, 2,6-Difluoro-N-(6-(2-(4-fluorophenyl)-6,7-dihydro-4H-pyrazolo[5,1-c][1,4]oxazin-3-yl)imidazo[1,2-b]pyridazin-2-yl) isonicotinamide], the half-maximal inhibitory concentration (IC50) was 0.3 nM on CK1δ and 4 nM on CK1ϵ.

In the case of `O=C(Nc1cn2nc(-c3c(-c4ccc(F)cc4)nn4c3CN(S(=O)(=O)Cc3ccccc3)CC4)ccc2n1)c1ccnc(F)c1` [Example 40, N-(6-(5-(Benzylsulfonyl)-2-(4-fluorophenyl)-4,5,6,7-tetrahydropyrazolo[1,5-a]pyrazin-3-yl)imidazo[1,2-b]pyridazin-2-yl)-2-fluoroisonicotinamide], the figures for the half-inhibitory concentration (IC50) against CK1δ and at CK1ϵ were 2.8 nM and 10.3 nM, respectively.

With `O=C(Nc1cn2nc(-c3c(-c4ccc(F)cc4)nn4c3CNCC4)ccc2n1)c1ccnc(-c2cccnc2)c1` [Example 6, N-(6-(2-(4-Fluorophenyl)-4,5,6,7-tetrahydropyrazolo[1,5-a]pyrazin-3-yl)imidazo[1,2-b]pyridazin-2-yl)-[2,3′-bipyridine]-4-carboxamide], the half-maximal inhibitory concentration (IC50) was found to be 0.3 nM against CK1δ and 2.3 nM on CK1ϵ.

For the molecule `O=C(Nc1cn2nc(-c3c(-c4ccc(F)cc4)nn4c3CN(C(=O)NC3(C(F)(F)F)CC3)CC4)ccc2n1)c1ccnc(F)c1` [Example 51, 3-(2-(2-Fluoroisonicotinamido)imidazo[1,2-b]pyridazin-6-yl)-2-(4-fluorophenyl)-N-(1-(trifluoromethyl)cyclopropyl)-6,7-dihydropyrazolo[1,5-a] pyrazine-5(4H)-carboxamide], the results for the IC50 against CK1δ and at CK1ϵ were 1.5 nM and 12.3 nM, respectively.

For the molecule `O=C(Nc1cn2nc(-c3c(-c4ccc(F)cc4)nn4c3CN(C(=O)c3ccncc3)CC4)ccc2n1)c1ccnc(F)c1` [Example 13, 2-Fluro-N-(6-(2-(4-fluorophenyl)-5-isonicotinoyl-4,5,6,7-tetrahydropyrazolo[1,5-a]pyrazin-3-yl)imidazo[1,2-b]pyridazin-2-yl) isonicotinamide], the results for the half-inhibitory concentration (IC50) against CK1δ and on CK1ϵ were 0.5 nM and 4.5 nM, respectively.

Consider `O=C(Nc1cn2nc(-c3c(-c4ccc(F)cc4)nn4c3CNCC4)ccc2n1)c1ccncc1` [Example 3, N-(6-(2-(4-Fluorophenyl)-4,5,6,7-tetrahydropyrazolo[1,5-a]pyrazin-3-yl)imidazo[1,2-b]pyridazin-2-yl)isonicotinamide], for which the IC50 is 0.5 nM on CK1δ and 5.1 nM on CK1ϵ.

For the molecule `O=C(Nc1cn2nc(-c3c(-c4ccc(F)cc4)nn4c3CN(C3COC3)CC4)ccc2n1)c1ccnc(F)c1` [Example 30, 2-Fluoro-N-(6-(2-(4-fluorophenyl)-5-(oxetan-3-yl)-4,5,6,7-tetrahydropyrazolo[1,5-a]pyrazin-3-yl)imidazo[1,2-b]pyridazin-2-yl)isonicotinamide], the half-inhibitory concentration (IC50) was 0.5 nM against CK1δ and 6.5 nM at CK1ϵ.

`O=C(Nc1cn2nc(-c3c(-c4ccc(F)cc4)nn4c3COCC4)ccc2n1)c1ccncc1` [Example 54, N-(6-(2-(4-Fluorophenyl)-6,7-dihydro-4H-pyrazolo[5,1-c][1,4]oxazin-3-yl)imidazo[1,2-b]pyridazin-2-yl)isonicotinamide]: the figures for the half-maximal inhibitory concentration (IC50) on CK1δ and at CK1ϵ were 0.3 nM and 2.6 nM, respectively.

In the case of `Cc1nc(C(F)(F)F)ccc1C(=O)Nc1cn2nc(-c3c(-c4ccc(F)cc4)nn4c3CNCC4)ccc2n1` [Example 11, N-(6-(2-(4-Fluorophenyl)-4,5,6,7-tetrahydropyrazolo[1,5-a]pyrazin-3-yl)imidazo[1,2-b]pyridazin-2-yl)-2-methyl-6-(trifluoromethyl)nicotinamide], the half-maximal inhibitory concentration (IC50) against CK1δ is 1.8 nM; on CK1ϵ it was 15.2 nM.

Regarding `O=C(Nc1cn2nc(-c3c(-c4ccc(F)cc4)nn4c3CN(C(=O)Nc3ccncc3)CC4)ccc2n1)c1ccnc(F)c1` [Example 49, 3-(2-(2-Fluoroisonicotinamido)imidazo[1,2-b]pyridazin-6-yl)-2-(4-fluorophenyl)-N-(pyridin-4-yl)-6,7-dihydropyrazolo[1,5-a]pyrazine-5(4H)-carboxamide], the concentration for half-maximal inhibition (IC50) is 0.7 nM on CK1δ and 7.3 nM at CK1ϵ.

Regarding `CC(C)(C)NC(=O)N1CCn2nc(-c3ccc(F)cc3)c(-c3ccc4nc(NC(=O)c5ccnc(F)c5)cn4n3)c2C1` [Example 41, N-(tert-Butyl)-3-(2-(2-fluoroisonicotinamido)imidazo[1,2-b]pyridazin-6-yl)-2-(4-fluorophenyl)-6,7-dihydropyrazolo[1,5-a]pyrazine-5 (4)-carboxamide], the values for the half-inhibitory concentration (IC50) against CK1δ and on CK1ϵ were 2.8 nM and 20.5 nM, respectively.

Turning to `O=C(Nc1cn2nc(-c3c(-c4ccc(F)cc4)nn4c3CNCC4)ccc2n1)c1ccnc(F)c1` [Example 1, 2-Fluoro-N-(6-(2-(4-fluorophenyl)-4,5,6,7-tetrahydropyrazolo[1,5-a]pyrazin-3-yl)imidazo[1,2-b]pyridazin-2-yl)isonicotinamide], the figures for the IC50 on CK1δ and at CK1ϵ were 0.5 nM and 3.7 nM, respectively.
